# Patent publication US20100093536A1, “CONTROL OF GRASSY WEEDS WITH VINYLGLYCINES AND VINYLGLYCINE-PRODUCING ORGANISMS” (THE STATE OF OREGON ACTING BY AND THROUGH THE STATE BOARD …, priority 2008, published 2010)
# Test system: Poa annua (annual bluegrass) seeds
# Assay: Standard GAF Bioassay System (Standard Poa Bioassay), seed germination scored after 7 days
# Format: in vivo
# Parameters: key to GERMINATION SCORE IN THE POA BIOASSAY (±Standard Error of the Mean) / GERMINATION SCORE (±Standard Error of the Mean): germination score, 0 = no germination to 4.0 = first true leaf emerged
# Settings: for reversal of the effects of GAF by amino acids, in words: in presence of WH6 culture filtrate; for toxicity of trace metal in the Poa bioassay, in words: higher concentrations tested (up to 200 μM)
# Procedure: The seed of Poa annua (or other test seeds) were surface-sterilized by placing two to five grams of seeds in a 50 ml glass beaker, covering the seeds with a 50% (v/v) solution of H2SO4, and stirring vigorously for 5 minutes. The seed/acid mixture was filtered through a Gooch crucible and repeatedly rinsed with tap water to remove residual acid. The seeds were then placed in a beaker and covered with bleach (Clorox®, NaOCl, 5.25%) containing 1% (v/v) polyoxethylene sorbitan monolaurate (Tween®-20). The seeds were stirred for 5 minutes and then repeatedly rinsed with sterile deionized water and placed in a sterile Petri dish. The seeds were used immediately while wet or dried (spread in a thin layer and allowed to dry under a laminar flow hood with the Petri dish lid ajar for 4 to 8 hours) to prevent premature germination.
# Bioassays for GAF activity were performed with Poa annua (annual bluegrass) seeds unless otherwise indicated. For each concentration of each test solution, 200 μl aliquots of solution were distributed to each of three wells of a sterile Costar® forty-eight well tissue culture plate (Corning® Costar® Number 3548). Three surface-sterilized Poa annua seeds were aseptically transferred to each well and submerged in the liquid, providing a total of nine observations for each concentration of each solution tested. The lid of the tissue culture plate was sealed with Parafilm® and the plate was placed in a germinator at 20° C. (8 hour day length at a light intensity of 50 μmol/m^2/s, 16 hour dark period) for seven days. Germination was scored on the basis of the following four-point system: • Score 0: No visible signs of germination. • Score 0.5: Seed coat split but plumule and coleorhiza are not visible. • Score 1.0: Plumule and coleorhiza visible. Plumule chlorotic and shorter than length of seed. Root not yet visible. • Score 1.5: Plumule still shorter than length of seed, but root is clearly visible. • Score 2.0: Plumule approximately equal in length to the seed. Root elongated. • Score 2.5: Plumule obviously longer than length of seed. First true leaf still enclosed in coleoptile. • Score 3.0: First true leaf emerged from coleoptile and green. Emerged portion of the leaf is obviously shorter than the coleoptile. • Score 3.5: First true leaf emerged from coleoptile and green. Emerged portion of the leaf is approximately equal in length to the coleoptile. • Score 4.0: First true leaf emerged from coleoptile and green. Emerged portion of the leaf is obviously longer than the coleoptile.
# [1] = WH6 culture filtrate 0, amino acid 0.3 mM
# [2] = WH6 culture filtrate 0, amino acid 1 mM
# [3] = WH6 culture filtrate 0, amino acid 3 mM
# [4] = WH6 culture filtrate 0, amino acid 10 mM
# [5] = WH6 culture filtrate 0, amino acid 30 mM
# [6] = WH6 culture filtrate 0.1X plus amino acid 0.3 mM
# [7] = WH6 culture filtrate 0.1X plus amino acid 1 mM
# [8] = WH6 culture filtrate 0.1X plus amino acid 3 mM
# [9] = WH6 culture filtrate 0.1X plus amino acid 10 mM
# [10] = WH6 culture filtrate 0.1X plus amino acid 30 mM
# [11] = GAF Conc. 0, metal 12.5 μM, score 4.0 = normal germination, 1.0 = arrest
# [12] = GAF Conc. 2X plus metal 12.5 μM
SMILES,POA BIOASSAY SCORES (±Standard Error of the Mean) [11],"POA BIOASSAY SCORES (±Standard Error of the Mean) (GAF Conc. 0, metal 25 μM)","POA BIOASSAY SCORES (±Standard Error of the Mean) (GAF Conc. 0, metal 50 μM)","POA BIOASSAY SCORES (±Standard Error of the Mean) (GAF Conc. 0, metal 100 μM)","POA BIOASSAY SCORES (±Standard Error of the Mean) (GAF Conc. 0, metal 200 μM)",POA BIOASSAY SCORES (±Standard Error of the Mean) [12],POA BIOASSAY SCORES (±Standard Error of the Mean) (GAF Conc. 2X plus metal 25 μM),POA BIOASSAY SCORES (±Standard Error of the Mean) (GAF Conc. 2X plus metal 50 μM),POA BIOASSAY SCORES (±Standard Error of the Mean) (GAF Conc. 2X plus metal 100 μM),POA BIOASSAY SCORES (±Standard Error of the Mean) (GAF Conc. 2X plus metal 200 μM),also measured
CC(C)C[C@H](N)C(=O)O [Leucine],–,–,–,–,–,–,–,–,–,–,GERMINATION SCORE (±Standard Error of the Mean) [1]: 3.9 ± 0.2; GERMINATION SCORE (±Standard Error of the Mean) [2]: 4.0 ± 0.0; GERMINATION SCORE (±Standard Error of the Mean) [3]: 3.6 ± 0.2; GERMINATION SCORE (±Standard Error of the Mean) [4]: 3.0 ± 0.0; GERMINATION SCORE (±Standard Error of the Mean) [5]: 1.7 ± 0.1; GERMINATION SCORE (±Standard Error of the Mean) [6]: 1.5 ± 0.0; GERMINATION SCORE (±Standard Error of the Mean) [7]: 1.5 ± 0.3; GERMINATION SCORE (±Standard Error of the Mean) [8]: 3.6 ± 0.1; GERMINATION SCORE (±Standard Error of the Mean) [9]: 3.4 ± 0.1; GERMINATION SCORE (±Standard Error of the Mean) [10]: 2.8 ± 0.1
[Cl][Cu][Cl] [CuCl2],3.3 ± 0.17,2.9 ± 0.04,1.2 ± 0.27,0.30 ± 0.28,0.00 ± 0.00,1.00 ± 0.00,2.58 ± 0.06,3.94 ± 0.06,2.97 ± 0.03,2.69 ± 0.09,–
NC(=O)CC[C@H](N)C(=O)O [Glutamine],–,–,–,–,–,–,–,–,–,–,"GERMINATION SCORE (±Standard Error of the Mean) [1]: 4.0 ± 0.0; GERMINATION SCORE (±Standard Error of the Mean) [2]: 4.0 ± 0.0; GERMINATION SCORE (±Standard Error of the Mean) [3]: 3.7 ± 0.3; GERMINATION SCORE (±Standard Error of the Mean) [4]: 3.7 ± 0.3; GERMINATION SCORE (±Standard Error of the Mean) [5]: 4.0 ± 0.0; GERMINATION SCORE (±Standard Error of the Mean) [6]: 1.4 ± 0.1; GERMINATION SCORE (±Standard Error of the Mean) [7]: 1.8 ± 0.2; GERMINATION SCORE (±Standard Error of the Mean) [8]: 3.5 ± 0.3; GERMINATION SCORE (±Standard Error of the Mean) [9]: 4.0 ± 0.0; GERMINATION SCORE (±Standard Error of the Mean) [10]: 4.0 ± 0.0; reversal of the effects of GAF by amino acids, in words: most effective"
O=S(=O)([O-])[O-].[Fe+2] [FeSO4],4.00 ± 0.00,3.50 ± 0.13,3.00 ± 0.00,2.86 ± 0.44,2.47 ± 0.07,1.00 ± 0.00,1.00 ± 0.00,1.00 ± 0.00,1.00 ± 0.00,1.00 ± 0.00,–
[Cl-].[Cl-].[Zn+2] [ZnCl2],4.00 ± 0.00,4.00 ± 0.00,4.00 ± 0.00,3.5 ± 0.00,3.00 ± 0.00,1.00 ± 0.00,1.00 ± 0.00,1.00 ± 0.00,1.00 ± 0.00,1.00 ± 0.00,–
[Cu] [Copper],–,–,–,–,–,–,–,–,–,–,"toxicity of trace metal in the Poa bioassay, in words: completely inhibiting germination"
O=S(=O)([O-])[O-].[Cu+2] [CuSO4],3.5 ± 0.00,3.00 ± 0.00,1.11 ± 0.11,0.00 ± 0.00,0.00 ± 0.00,1.00 ± 0.00,1.00 ± 0.00,1.00 ± 0.00,3.00 ± 0.00,0.00 ± 0.00,–
[Ca+2].[Cl-].[Cl-] [CaCl2],4.00 ± 0.00,4.00 ± 0.00,4.00 ± 0.00,4.00 ± 0.00,4.00 ± 0.00,1.00 ± 0.00,1.00 ± 0.00,1.00 ± 0.00,1.00 ± 0.00,1.00 ± 0.00,–
[Cl][Ni][Cl] [NiCl2],2.78 ± 0.05,2.47 ± 0.10,1.78 ± 0.09,1.44 ± 0.06,1.00 ± 0.00,1.00 ± 0.00,1.00 ± 0.00,1.00 ± 0.00,1.00 ± 0.00,1.00 ± 0.00,–
[Fe] [Iron],–,–,–,–,–,–,–,–,–,–,"toxicity of trace metal in the Poa bioassay, in words: slight toxicity"
C[C@H](N)C(=O)O [Alanine],–,–,–,–,–,–,–,–,–,–,"GERMINATION SCORE (±Standard Error of the Mean) [1]: 4.0 ± 0.0; GERMINATION SCORE (±Standard Error of the Mean) [2]: 3.9 ± 0.1; GERMINATION SCORE (±Standard Error of the Mean) [3]: 4.0 ± 0.0; GERMINATION SCORE (±Standard Error of the Mean) [4]: 3.9 ± 0.1; GERMINATION SCORE (±Standard Error of the Mean) [5]: 3.2 ± 0.1; GERMINATION SCORE (±Standard Error of the Mean) [6]: 1.9 ± 0.1; GERMINATION SCORE (±Standard Error of the Mean) [7]: 3.3 ± 0.1; GERMINATION SCORE (±Standard Error of the Mean) [8]: 4.0 ± 0.0; GERMINATION SCORE (±Standard Error of the Mean) [9]: 4.0 ± 0.0; GERMINATION SCORE (±Standard Error of the Mean) [10]: 4.0 ± 0.0; reversal of the effects of GAF by amino acids, in words: most effective"
